According to patent US20130165522A1, “GEL FORMULATIONS FOR THE TOPICAL USE OF 1-AMINO-ALKYLCYCLOHEXANE DERIVATIVES” (MERZ PHARMA GmbH & CO. KGaA, priority 2010, published 2013):

Assays:
[1] = test system: Propionibacterium acnes; assay: Antibacterial activity; format: cell-based
[2] = test system: Staphylococcus aureus; assay: Antibacterial activity; format: cell-based

CC1(C)CC(C)(C)CC(C)(N)C1 [neramexane, 1-amino-1,3,3,5,5-pentamethylcyclohexane]
antibacterial activity [1]: exhibits antibacterial activity
antibacterial activity [2]: exhibits antibacterial activity
